Holding throughout (assay type): biochemical
Experiment [1] concerns the target T1, cathepsin S (Homo sapiens, UniProt P25774).
T1 construct: purchased Calbiochem 219343; host or cells: E. coli
Nature of the experiment: Cathepsin S kinetic fluorescence enzyme inhibition assay. The note with it: selectivity ratio versus calpain.
Experimental: 0.5 nM recombinant human cathepsin S from E. coli (Calbiochem #219343), 20 μM Z-Val-Val-Arg-AMC (Bachem #I-1540) as substrate in 50 mM MES, 2 mM EDTA, 0.05% Brij 35, 2.5 mM L-cysteine, pH 6.0, room temperature.

Experiment [2] has as its target T2, cathepsin K (Homo sapiens, UniProt P43235).
T2 construct: purchased Calbiochem 342001; host or cells: E. coli
T2 sequence (P43235 115-329): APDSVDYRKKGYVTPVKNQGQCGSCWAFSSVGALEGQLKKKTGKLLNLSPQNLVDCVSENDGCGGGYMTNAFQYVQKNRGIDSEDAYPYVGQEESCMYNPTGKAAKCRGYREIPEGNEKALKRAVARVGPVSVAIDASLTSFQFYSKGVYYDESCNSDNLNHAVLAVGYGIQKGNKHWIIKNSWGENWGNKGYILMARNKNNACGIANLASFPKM
The experiment is described as follows: Cathepsin K kinetic fluorescence enzyme inhibition assay. The note with it: selectivity ratio versus calpain.
Experimental: 3 nM cathepsin K—activated from recombinant human procathepsin K from E. coli (Calbiochem #342001), 10 μM Z-Gly-Pro-Arg-AMC (Biomol #P-142) as substrate in 50 mM MES, 2 mM EDTA, 0.05% Brij 35, 2.5 mM L-cysteine, pH 6.0, room temperature.

For experiment [3], the target named is T3, cathepsin L (Homo sapiens, UniProt P07711).
T3 construct: cathepsin L—isolated from human liver; purchased Calbiochem 219402; host or cells: human liver (natural source)
The experiment is described as follows: Cathepsin L kinetic fluorescence enzyme inhibition assay. The note with it: selectivity ratio versus calpain.
Experimental: 1 nM cathepsin L—isolated from human liver (Calbiochem #219402), 2 μM Z-Phe-Arg-AMC (Bachem #I-1160) as substrate in 50 mM MES, 2 mM EDTA, 0.05% Brij 35, 2.5 mM L-cysteine, pH 6.0, room temperature.

In experiment [4] the target is T4, cathepsin B (Homo sapiens, UniProt P07858).
T4 construct: cathepsin B—isolated from human liver; purchased Calbiochem 219362; host or cells: human liver (natural source)
The experiment is described as follows: Cathepsin B kinetic fluorescence enzyme inhibition assay. The following applies: selectivity ratio versus calpain.
Experimental: 0.25 nM cathepsin B—isolated from human liver (Calbiochem #219362), 100 μM Z-Phe-Arg-AMC (Bachem #I-1160) as substrate 50 mM MES, 2 mM EDTA, 0.05% Brij 35, 2.5 mM L-cysteine, pH 6.0, room temperature.

Experiment [5] has as its target T5, calpain-I (Homo sapiens, UniProt P07384).
T5 construct: calpain-I—isolated from human erythrocytes; purchased Calbiochem 208713; host or cells: human erythrocytes (natural source)
T5 sequence (P07384 1-714): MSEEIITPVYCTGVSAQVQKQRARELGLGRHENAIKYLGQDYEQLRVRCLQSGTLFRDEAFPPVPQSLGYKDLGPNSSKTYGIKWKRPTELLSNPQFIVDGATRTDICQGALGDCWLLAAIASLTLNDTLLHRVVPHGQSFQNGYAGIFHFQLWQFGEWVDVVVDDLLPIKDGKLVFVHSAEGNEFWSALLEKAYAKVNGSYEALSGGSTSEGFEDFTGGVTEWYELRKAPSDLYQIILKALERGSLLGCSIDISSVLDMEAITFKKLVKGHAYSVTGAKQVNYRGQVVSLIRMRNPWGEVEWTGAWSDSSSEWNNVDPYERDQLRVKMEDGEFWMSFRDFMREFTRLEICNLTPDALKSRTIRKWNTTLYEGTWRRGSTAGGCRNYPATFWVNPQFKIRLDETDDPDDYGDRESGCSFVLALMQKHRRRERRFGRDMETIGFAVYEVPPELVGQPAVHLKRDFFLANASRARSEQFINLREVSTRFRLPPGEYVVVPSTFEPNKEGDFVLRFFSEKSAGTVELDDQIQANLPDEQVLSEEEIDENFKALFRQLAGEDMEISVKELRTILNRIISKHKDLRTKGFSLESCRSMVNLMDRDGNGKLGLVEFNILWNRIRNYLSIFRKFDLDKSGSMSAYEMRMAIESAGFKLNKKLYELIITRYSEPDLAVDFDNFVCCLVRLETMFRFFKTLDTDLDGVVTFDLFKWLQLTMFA
T5 sequence (P04632 1-268 partner): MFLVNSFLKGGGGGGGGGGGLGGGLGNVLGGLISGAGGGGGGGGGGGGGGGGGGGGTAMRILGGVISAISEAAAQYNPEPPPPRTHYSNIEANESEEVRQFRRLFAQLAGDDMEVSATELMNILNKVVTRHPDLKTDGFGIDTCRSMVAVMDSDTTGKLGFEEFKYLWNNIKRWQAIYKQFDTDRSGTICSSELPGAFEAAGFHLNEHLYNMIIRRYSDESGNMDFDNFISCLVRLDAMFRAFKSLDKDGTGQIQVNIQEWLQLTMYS
The experiment is described as follows: Calpain I kinetic fluorescence enzyme inhibition assay. The note with it: calpain-I from human erythrocytes, Suc-Leu-Tyr-AMC, pH 7.3; apparent Ki from IC50 by Cheng-Prussoff. As for the experimental part: Testing for blockade of the corresponding enzymic activities was carried out by means of kinetic fluorescence assays (excitation 390 nm, emission 460 nm).
Apparent Ki values were calculated from the experimentally determined IC50 values by the Cheng-Prussoff relation assuming a reversible competitive enzyme inhibition.
20 nM calpain-I—isolated from human erythrocytes (Calbiochem #208713), 100 μM Suc-Leu-Tyr-AMC (Bachem #I-1355) as substrate in buffer with 62 mM imidazole, 0.3 mM CaCl2, 0.10% CHAPS, 0.05% BSA, 1 mM DTT at pH 7.3 and room temperature.

T3 sequence (P07711 114-333): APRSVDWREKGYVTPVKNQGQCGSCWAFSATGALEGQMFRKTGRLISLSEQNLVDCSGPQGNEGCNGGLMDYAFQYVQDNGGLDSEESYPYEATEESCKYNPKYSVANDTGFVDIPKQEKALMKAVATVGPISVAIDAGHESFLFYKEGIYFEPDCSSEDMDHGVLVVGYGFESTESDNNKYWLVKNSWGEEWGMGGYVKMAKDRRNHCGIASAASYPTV
T1 sequence (P25774 115-331): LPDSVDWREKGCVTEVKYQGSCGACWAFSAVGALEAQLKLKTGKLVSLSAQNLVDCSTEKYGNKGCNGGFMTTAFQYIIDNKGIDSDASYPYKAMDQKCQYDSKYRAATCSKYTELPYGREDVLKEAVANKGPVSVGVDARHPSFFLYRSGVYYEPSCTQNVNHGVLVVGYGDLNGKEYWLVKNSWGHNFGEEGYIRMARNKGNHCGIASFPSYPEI

As to `O=C(NC1CC1)C(=O)C(Cc1ccccc1)NC(=O)[C@H]1CCC(=O)N1Cc1ccccc1F` (mixture of isomers) [Example 30, (2R)—N-(4-(cyclopropylamino)-3,4-dioxo-1-phenylbutan-2-yl)-1-(2-fluorobenzyl)-5-oxopyrrolidine-2-carboxamide], the “Sel cat. S (Ki(cathepsin S)/Ki(calpain) ratio)” value in experiment [1] was “+++ (Ki(cathepsin S)/Ki(calpain) ratio of >50)”. In addition, the “Sel cat. K (Ki(cathepsin K)/Ki(calpain) ratio)” value in experiment [2] was “+++ (Ki(cathepsin K)/Ki(calpain) ratio of >30)”. For the same molecule, the “Sel cat. L (Ki(cathepsin L)/Ki(calpain) ratio)” value in experiment [3] is “++ (10<Ki(cathepsin L)/Ki(calpain)≦50)”. Also, the “Sel cat. B (Ki(cathepsin B)/Ki(calpain) ratio)” value in experiment [4] is recorded as “++ (9<Ki(cathepsin B)/Ki(calpain)≦30)”. For the same molecule, the Ki in experiment [5] lay in the range of 400 to 800 nM.
The like results for `O=C(NCCc1ccccc1)C(=O)C(Cc1ccccc1)NC(=O)c1cccnc1-n1ccc(-c2ccc(F)cc2)n1` (stereo not drawn) [Example 1, N-{3,4-Dioxo-1-phenyl-4-[(2-phenylethyl)amino]butan-2-yl}-2-[3-(4-fluorophenyl)-1H-pyrazol-1-yl]pyridine-3-carboxamide] were, in that order, “++ (10<Ki(cathepsin S)/Ki(calpain)≦50)”, “++ (9<Ki(cathepsin K)/Ki(calpain)≦30)”, “++ (10<Ki(cathepsin L)/Ki(calpain)≦50)”, “++ (9<Ki(cathepsin B)/Ki(calpain)≦30)” and 250 to 400 nM.
The like results for `O=C(NCCc1ccccn1)C(=O)C(Cc1ccccc1)NC(=O)c1cccnc1-n1ccc(-c2ccc(F)cc2)n1` (stereo not drawn) [Example 3, N-(3,4-Dioxo-1-phenyl-4-{[2-(pyridin-2-yl)ethyl]amino}butan-2-yl)-2-[3-(4-fluorophenyl)-1H-pyrazol-1-yl]pyridine-3-carboxamide] were, in that order, “++ (10<Ki(cathepsin S)/Ki(calpain)≦50)”, “++ (9<Ki(cathepsin K)/Ki(calpain)≦30)”, “++ (10<Ki(cathepsin L)/Ki(calpain)≦50)”, “++ (9<Ki(cathepsin B)/Ki(calpain)≦30)” and 250 to 400 nM.
The like results for `O=C(NCc1nc2ccccc2[nH]1)C(=O)C(Cc1ccccc1)NC(=O)c1cccnc1-n1ccc(-c2ccccc2)n1` (stereo not drawn) [Example 20, N-{4-[(1H-Benzimidazol-2-ylmethyl)amino]-3,4-dioxo-1-phenyl-2-butanyl}-2-(3-phenyl-1H-pyrazol-1-yl)nicotinamide] were, in that order, “++ (10<Ki(cathepsin S)/Ki(calpain)≦50)”, “++ (9<Ki(cathepsin K)/Ki(calpain)≦30)”, “++ (10<Ki(cathepsin L)/Ki(calpain)≦50)”, “++ (9<Ki(cathepsin B)/Ki(calpain)≦30)” and 800 to 1000 nM.
In the case of `COc1ccc(CC(NC(=O)c2cccnc2-n2ccc(-c3ccccc3)n2)C(=O)C(=O)NC2CC2)cc1` (stereo not drawn) [Example 22, N-[4-(Cyclopropylamino)-1-(4-methoxyphenyl)-3,4-dioxo-2-butanyl]-2-(3-phenyl-1H-pyrazol-1-yl)nicotinamide], the “Sel cat. S (Ki(cathepsin S)/Ki(calpain) ratio)” value in experiment [1] was “++ (10<Ki(cathepsin S)/Ki(calpain)≦50)”. The “Sel cat. K (Ki(cathepsin K)/Ki(calpain) ratio)” value in experiment [2] is “++ (9<Ki(cathepsin K)/Ki(calpain)≦30)”. Further, the “Sel cat. L (Ki(cathepsin L)/Ki(calpain) ratio)” value in experiment [3] is recorded as “++ (10<Ki(cathepsin L)/Ki(calpain)≦50)”. Also, the “Sel cat. B (Ki(cathepsin B)/Ki(calpain) ratio)” value in experiment [4] was “++ (9<Ki(cathepsin B)/Ki(calpain)≦30)”. Moreover, the Ki in experiment [5] lay in the range of 250 to 400 nM.
The like results for `O=C(NC1CC1)C(=O)C(Cc1ccccc1)NC(=O)c1cccnc1-n1ccc(-c2cccc(N3CCOCC3)c2)n1` (stereo not drawn) [Example 26, N-[4-(Cyclopropylamino)-3,4-dioxo-1-phenyl-2-butanyl]-2-{3-[3-(4-morpholinyl)phenyl]-1H-pyrazol-1-yl}nicotinamide] were, in that order, “++ (10<Ki(cathepsin S)/Ki(calpain)≦50)”, “++ (9<Ki(cathepsin K)/Ki(calpain)≦30)”, “++ (10<Ki(cathepsin L)/Ki(calpain)≦50)”, “+ (5≦Ki(cathepsin B)/Ki(calpain)≦9)” and 400 to 800 nM.

For the origin of these results see patent publication US8598211B2, “Carboxamide compounds and their use as calpain inhibitors IV” (AbbVie Inc., priority 2009, dated 2013).
